Among the data in PubChem BioAssay (NCI) are TGI values, retold here.

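Values below derive from 48-hour exposures of cells grown in 96-well plates, with endpoints linearly interpolated between the two concentrations bracketing the appropriate inhibition level. At the TGI there is no net growth.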

Test systems include UACC-257 melanoma; RXF 393 renal; KM12 colon; SK-MEL-28 melanoma; HOP-62 NSCLC; PC-3 prostate; CCRF-CEM leukemia; MALME-3M melanoma; HOP-92 NSCLC; UACC-62 melanoma; SF-539 CNS; NCI/ADR-RES ovarian; M14 melanoma; NCI-H226 lung; LOX IMVI melanoma; SF-268 CNS.
What all share (experiment): NCI tumour cell line growth inhibition, 48 h

Turning to `COC/C=C\[C@]1(O)CCCC[C@@H]1CC(OC)OC`, the TGI in the experiment with UACC-257 melanoma, with RXF 393 renal, in the experiment on KM12 colon, in the experiment on SK-MEL-28 melanoma, in the experiment on HOP-62 NSCLC and in the experiment with PC-3 prostate was over 100 µM throughout. Further, the TGI in the experiment with CCRF-CEM leukemia, in the experiment on MALME-3M melanoma, in the experiment on HOP-92 NSCLC, with UACC-62 melanoma, in the experiment with SF-539 CNS and in the experiment on NCI/ADR-RES ovarian was over 100 µM throughout. Besides, the TGI with M14 melanoma, with NCI-H226 lung, in the experiment with LOX IMVI melanoma and in the experiment on SF-268 CNS was over 100 µM throughout.
As for `COc1ccc(N2C(=O)C3ON(C(C(N)=O)c4ccccc4)C(c4cc5ccccc5c5ccccc45)C3C2=O)cc1` (stereo not drawn), the TGI in the experiment on UACC-257 melanoma, with RXF 393 renal, in the experiment on KM12 colon, in the experiment on SK-MEL-28 melanoma, in the experiment on HOP-62 NSCLC and in the experiment with PC-3 prostate was over 50 µM in each case. The TGI with CCRF-CEM leukemia, in the experiment on MALME-3M melanoma, with HOP-92 NSCLC, in the experiment on UACC-62 melanoma, with SF-539 CNS and with NCI/ADR-RES ovarian was over 50 µM throughout. The TGI in the experiment with M14 melanoma, in the experiment on NCI-H226 lung, with LOX IMVI melanoma and in the experiment with SF-268 CNS was over 50 µM each time.
For `CC1ON2CCCC2[C@H]1C(=O)N1C2CC3CCC2(CS1(=O)=O)C3(C)C` (stereo partly drawn), the TGI in the experiment with UACC-257 melanoma, in the experiment on RXF 393 renal, with KM12 colon, in the experiment with SK-MEL-28 melanoma, in the experiment with HOP-62 NSCLC and in the experiment with PC-3 prostate was over 100 µM in each case. Also, the TGI in the experiment with CCRF-CEM leukemia, with MALME-3M melanoma, in the experiment with HOP-92 NSCLC, in the experiment on UACC-62 melanoma, with SF-539 CNS and with NCI/ADR-RES ovarian was over 100 µM each time. Also, the TGI in the experiment with M14 melanoma, in the experiment with NCI-H226 lung, in the experiment with LOX IMVI melanoma and in the experiment with SF-268 CNS was over 100 µM in each case.
Turning to `CC(C)(C)C1=CC(=C(c2ccc(-c3c4nc(c(-c5ccc(C(=C6C=C(C(C)(C)C)C(=O)C(C(C)(C)C)=C6)c6cc(C(C)(C)C)c(O)c(C(C)(C)C)c6)cc5)c5ccc([nH]5)c(-c5ccc(C(=C6C=C(C(C)(C)C)C(=O)C(C(C)(C)C)=C6)c6cc(C(C)(C)C)c(O)c(C(C)(C)C)c6)cc5)c5nc(c(-c6ccc(C(=C7C=C(C(C)(C)C)C(=O)C(C(C)(C)C)=C7)c7cc(C(C)(C)C)c(O)c(C(C)(C)C)c7)cc6)c6ccc3[nH]6)C=C5)C=C4)cc2)c2cc(C(C)(C)C)c(O)c(C(C)(C)C)c2)C=C(C(C)(C)C)C1=O`, the TGI in the experiment on UACC-257 melanoma, in the experiment with RXF 393 renal, in the experiment with KM12 colon, in the experiment on SK-MEL-28 melanoma, with HOP-62 NSCLC and with PC-3 prostate was over 100 µM throughout. Besides, the TGI with CCRF-CEM leukemia, with MALME-3M melanoma, in the experiment with HOP-92 NSCLC, in the experiment with UACC-62 melanoma, in the experiment on SF-539 CNS and in the experiment with NCI/ADR-RES ovarian was over 100 µM in each case. For the same molecule, the TGI with M14 melanoma, in the experiment with NCI-H226 lung, with LOX IMVI melanoma and in the experiment on SF-268 CNS was over 100 µM throughout.
In the case of `O=C1N[C@@H](c2c[nH]c3cc(Br)ccc23)C(=O)N[C@H]1c1c[nH]c2cc(Br)ccc12`, the TGI in the experiment with UACC-257 melanoma, with RXF 393 renal, with KM12 colon, in the experiment with SK-MEL-28 melanoma, in the experiment on HOP-62 NSCLC and in the experiment on PC-3 prostate was over 100 µM throughout. Further, the TGI in the experiment with CCRF-CEM leukemia, in the experiment on MALME-3M melanoma, in the experiment on HOP-92 NSCLC, in the experiment with UACC-62 melanoma, in the experiment with SF-539 CNS and in the experiment with NCI/ADR-RES ovarian was over 100 µM throughout. The TGI in the experiment with M14 melanoma, with NCI-H226 lung, with LOX IMVI melanoma and with SF-268 CNS was over 100 µM each time.
As for `Clc1ccc(-c2c(C3=NCCCN3)nnn2-c2ccc(Cl)cc2)cc1`, the TGI with UACC-257 melanoma is 44.1 µM; in the experiment with RXF 393 renal, 68.8 µM; in the experiment with KM12 colon, over 77.5 µM; in the experiment with SK-MEL-28 melanoma, 31.6 µM; in the experiment with HOP-62 NSCLC, over 82.6 µM; in the experiment with PC-3 prostate, over 68.4 µM. Besides, the TGI is over 83.3 µM in the experiment with CCRF-CEM leukemia; 33 µM with MALME-3M melanoma; 64.5 µM in the experiment on HOP-92 NSCLC; 36 µM in the experiment with UACC-62 melanoma; 67.5 µM with SF-539 CNS; over 86.4 µM in the experiment with NCI/ADR-RES ovarian. For the same molecule, the TGI is 31.3 µM with M14 melanoma, over 100 µM with NCI-H226 lung, 53 µM with LOX IMVI melanoma and over 83.2 µM in the experiment on SF-268 CNS.
Turning to `O=C1C=CC=C/C1=C1\N=C(c2ccccc2OCC(=O)c2ccc(Br)cc2)SS1`, the TGI in the experiment with UACC-257 melanoma was over 100 µM; with RXF 393 renal, over 100 µM; with KM12 colon it was over 100 µM; in the experiment on SK-MEL-28 melanoma, over 100 µM; with HOP-62 NSCLC it was 24 µM; in the experiment on PC-3 prostate, over 100 µM. For the same molecule, the TGI in the experiment on CCRF-CEM leukemia, in the experiment on MALME-3M melanoma, in the experiment with HOP-92 NSCLC, in the experiment with UACC-62 melanoma, with SF-539 CNS and in the experiment on NCI/ADR-RES ovarian was over 100 µM throughout. The TGI in the experiment on M14 melanoma, in the experiment with NCI-H226 lung, with LOX IMVI melanoma and with SF-268 CNS was over 100 µM throughout.
Turning to `COC(=O)C1C(=O)C=CN([C@H](C)c2ccccc2)[C@@H]1Cc1ccc(OC)c(OCc2ccccc2)c1I` (stereo partly drawn), the TGI with UACC-257 melanoma was 39.3 µM; in the experiment on RXF 393 renal, 25.2 µM; in the experiment with KM12 colon it was 52 µM; in the experiment on SK-MEL-28 melanoma, over 100 µM; in the experiment on HOP-62 NSCLC, 52.4 µM; with PC-3 prostate, over 100 µM. Also, the TGI in the experiment on CCRF-CEM leukemia was over 100 µM; with MALME-3M melanoma, 39.6 µM; in the experiment with HOP-92 NSCLC, 17.4 µM; in the experiment on UACC-62 melanoma it was 25.7 µM; in the experiment with SF-539 CNS, 36.4 µM; with NCI/ADR-RES ovarian it was 42.9 µM. Also, the TGI in the experiment with M14 melanoma was 30.2 µM; in the experiment with NCI-H226 lung it was 32.7 µM; with LOX IMVI melanoma, 27.8 µM; with SF-268 CNS, 41.1 µM.
